Measurements: the Kinase Knowledgebase extract (Sharma et al. 2016)

Tests used:
PIK3CA (human) = PIK3CA (human) (UniProt P42336); assay: Enzyme Assay
PIK3CD (Human) = PIK3CD (Human) (UniProt O00329); assay: Enzyme Assay
PIK3CD (Human), sequence (O00329 whole entry, looked up): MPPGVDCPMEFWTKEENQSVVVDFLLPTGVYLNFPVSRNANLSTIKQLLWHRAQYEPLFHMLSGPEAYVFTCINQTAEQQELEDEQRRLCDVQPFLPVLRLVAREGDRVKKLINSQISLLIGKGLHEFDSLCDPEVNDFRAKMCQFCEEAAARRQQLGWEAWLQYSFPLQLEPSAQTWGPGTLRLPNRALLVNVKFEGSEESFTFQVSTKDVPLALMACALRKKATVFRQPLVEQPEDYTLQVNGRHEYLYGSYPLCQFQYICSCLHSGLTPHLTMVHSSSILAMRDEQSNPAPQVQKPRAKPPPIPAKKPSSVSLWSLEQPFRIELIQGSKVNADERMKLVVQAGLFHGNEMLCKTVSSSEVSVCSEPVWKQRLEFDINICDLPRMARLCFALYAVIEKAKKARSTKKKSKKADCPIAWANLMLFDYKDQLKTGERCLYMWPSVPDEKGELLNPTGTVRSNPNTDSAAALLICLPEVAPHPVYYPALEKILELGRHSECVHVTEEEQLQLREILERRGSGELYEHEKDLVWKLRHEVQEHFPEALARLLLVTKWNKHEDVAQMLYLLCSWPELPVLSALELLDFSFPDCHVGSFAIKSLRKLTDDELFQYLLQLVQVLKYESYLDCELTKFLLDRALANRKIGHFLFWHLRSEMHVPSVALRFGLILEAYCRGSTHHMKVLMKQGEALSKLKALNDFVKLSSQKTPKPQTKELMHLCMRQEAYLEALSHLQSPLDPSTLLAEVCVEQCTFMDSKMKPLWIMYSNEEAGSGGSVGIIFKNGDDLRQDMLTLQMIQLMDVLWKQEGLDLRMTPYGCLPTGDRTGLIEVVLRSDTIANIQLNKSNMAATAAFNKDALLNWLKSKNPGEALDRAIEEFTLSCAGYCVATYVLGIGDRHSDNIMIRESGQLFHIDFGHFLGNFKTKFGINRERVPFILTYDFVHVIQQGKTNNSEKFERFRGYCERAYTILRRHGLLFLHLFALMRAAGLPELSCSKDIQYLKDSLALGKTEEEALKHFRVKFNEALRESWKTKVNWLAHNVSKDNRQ

PIK3CA (human), sequence (P42336 whole entry, looked up): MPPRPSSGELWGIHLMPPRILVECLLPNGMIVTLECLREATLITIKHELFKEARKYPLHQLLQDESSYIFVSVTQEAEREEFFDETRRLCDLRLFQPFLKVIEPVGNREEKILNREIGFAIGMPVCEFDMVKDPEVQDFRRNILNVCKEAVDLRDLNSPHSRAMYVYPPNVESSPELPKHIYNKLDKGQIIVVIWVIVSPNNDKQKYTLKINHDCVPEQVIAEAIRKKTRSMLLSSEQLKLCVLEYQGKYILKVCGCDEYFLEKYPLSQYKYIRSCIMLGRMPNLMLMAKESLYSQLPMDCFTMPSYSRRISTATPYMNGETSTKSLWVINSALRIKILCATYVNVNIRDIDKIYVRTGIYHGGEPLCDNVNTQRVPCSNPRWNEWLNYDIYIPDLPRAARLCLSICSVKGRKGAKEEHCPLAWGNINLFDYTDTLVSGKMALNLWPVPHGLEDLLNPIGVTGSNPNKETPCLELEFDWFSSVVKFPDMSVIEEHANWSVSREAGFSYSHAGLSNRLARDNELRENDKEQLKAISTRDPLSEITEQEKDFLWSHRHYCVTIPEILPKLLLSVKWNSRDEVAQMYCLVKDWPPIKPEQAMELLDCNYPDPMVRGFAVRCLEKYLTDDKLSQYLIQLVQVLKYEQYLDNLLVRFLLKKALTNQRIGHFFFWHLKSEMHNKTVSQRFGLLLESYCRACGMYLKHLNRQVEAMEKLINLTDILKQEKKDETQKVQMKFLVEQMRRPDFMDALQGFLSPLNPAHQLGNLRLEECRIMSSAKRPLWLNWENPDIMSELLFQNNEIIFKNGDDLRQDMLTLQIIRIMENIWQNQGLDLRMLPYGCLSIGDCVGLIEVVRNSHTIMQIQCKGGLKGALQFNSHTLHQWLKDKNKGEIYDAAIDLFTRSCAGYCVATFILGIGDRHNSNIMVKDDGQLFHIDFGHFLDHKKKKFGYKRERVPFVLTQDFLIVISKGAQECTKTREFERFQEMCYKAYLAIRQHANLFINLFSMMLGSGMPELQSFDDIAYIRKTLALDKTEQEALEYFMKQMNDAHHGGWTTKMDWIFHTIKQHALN

SMILES	IC50 (PIK3CA (human)) [nM]	IC50 (PIK3CD (Human)) [nM]
CNC(=O)c1nn(Cc2cc3cccc(C)c3c(=O)n2-c2ccccc2)c2ncnc(N)c12	> 10000	100 to 1000
Cc1ccccc1-n1c(Cn2nc(-c3ccc(O)c(F)c3)c3c(N)ncnc32)cc2cccc(C)c2c1=O	> 10000	
Cc1cccc2cc([C@H](C)Nc3ncnc4[nH]cnc34)n(-c3ccccc3)c(=O)c12		< 100
CC(=O)Nc1nc2ccc(-c3nn(Cc4cc5cccc(C)c5c(=O)n4-c4ccccc4C)c4ncnc(N)c34)cc2[nH]1		< 100
CC(=O)c1nn(Cc2cc3cccc(C)c3c(=O)n2-c2ccccc2)c2ncnc(N)c12	> 10000	100 to 1000
Cc1ccccc1-n1c(Cn2nc(C#C[C@@H](C)O)c3c(N)ncnc32)cc2ccccc2c1=O	> 10000	100 to 1000
Cc1ccccc1-n1c(Cn2nc(-c3ccc(Cl)c(O)c3)c3c(N)ncnc32)cc2cccc(C)c2c1=O	> 10000	
Cc1ccccc1-n1c(Cn2nc(-c3ccc4nc(N)oc4c3)c3c(N)ncnc32)cc2cccc(C)c2c1=O		< 100
Cc1cccc2cc(C(C)Nc3ncnc4[nH]cnc34)n(-c3ccccc3)c(=O)c12 (stereo unspecified)		< 100
Cc1ccccc1-n1c(Cn2nc(-c3cccc(O)c3)c3c(N)ncnc32)cc2cccc(C)c2c1=O	> 10000	
Cc1cccc2cc([C@H](C)Nc3ncnc4[nH]cnc34)n(C(C)C)c(=O)c12		< 100
Cc1cccc2cc(Cn3nc(C(C)(C)O)c4c(N)ncnc43)n(-c3ccccc3)c(=O)c12	> 10000	> 10000
CC(=O)Nc1nc2ccc(-c3nn(Cc4cc5cccc(C)c5c(=O)n4-c4ccccc4)c4ncnc(N)c34)cc2s1	100 to 1000	
Cc1cccc2cc(C(C)Nc3ncnc4[nH]cnc34)n(C3CCC3)c(=O)c12 (stereo unspecified)	> 10000	< 100
Cc1cccc2cc(Cn3nc(C#CC4CC4)c4c(N)ncnc43)n(-c3ccccc3F)c(=O)c12		100 to 1000
Cc1cccc2cc(Cn3nc(-c4cccc(O)c4)c4c(N)ncnc43)n(C3CCCCC3)c(=O)c12	> 10000	
Cc1cccc2cc(Cn3nc(-c4cn[nH]c4)c4c(N)ncnc43)n(C3CCN(C)CC3)c(=O)c12		100 to 1000
Cc1cccnc1-n1c(Cn2nc(Br)c3c(N)ncnc32)cc2cccc(C)c2c1=O	> 10000	100 to 1000
CCc1nn(Cc2cc3cccc(C)c3c(=O)n2-c2ccccc2)c2ncnc(N)c12		< 100
Cc1ccccc1-n1c(Cn2nc(-c3ccc4nc(N)sc4c3)c3c(N)ncnc32)cc2cccc(C)c2c1=O	100 to 1000	
COCc1nn(Cc2cc3cccc(C)c3c(=O)n2-c2ccccc2C)c2ncnc(N)c12	> 10000	> 10000

SMILES	IC50 (PIK3CA (human)) [nM]	IC50 (PIK3CD (Human)) [nM]
Cc1cccc2cc(C(C)Nc3ncnc4[nH]cnc34)n(CCN3CCOCC3)c(=O)c12 (stereo unspecified)		< 100
Cc1cccc2cc(Cn3nc(-c4ccc(F)c(O)c4)c4c(N)ncnc43)n(C(C)C)c(=O)c12	> 10000	
Cc1ccccc1-n1c(Cn2nc(-c3ccc4oc(N)nc4c3)c3c(N)ncnc32)cc2cccc(C)c2c1=O	100 to 1000	< 100
Cc1nc2c(N[C@@H](C)c3cc4cccc(C)c4c(=O)n3-c3ccccc3)ncnc2[nH]1	> 10000	
Cc1cccc2cc([C@H](C)Nc3ncnc4[nH]ccc34)n(-c3ccccc3)c(=O)c12	> 10000	< 100
Cc1cccc2cc(Cn3nc(-c4ccc5oc(N)nc5c4)c4c(N)ncnc43)n(-c3ccccc3)c(=O)c12		< 100
Cc1ccccc1-n1c(Cn2nc(-c3ccc4cc[nH]c4c3)c3c(N)ncnc32)cc2cccc(C)c2c1=O	> 10000	
Cc1ccccc1-n1c(Cn2nc(C#C[C@H](C)O)c3c(N)ncnc32)cc2cccc(C)c2c1=O	> 10000	100 to 1000
Cc1cccc2cc([C@H](C)NC(=O)c3cnn4ccccc34)n(-c3ccccc3)c(=O)c12	> 10000	> 10000
Cc1cccc2cc([C@H](C)Nc3nc(N)ncc3F)n(C3CC3)c(=O)c12	> 10000	
Cc1ccccc1-n1c(Cn2nc(CO)c3c(N)ncnc32)cc2cccc(C)c2c1=O	> 10000	100 to 1000
Cc1cccc2cc([C@H](C)Nc3nc(F)nc4[nH]cnc34)n(-c3ccccc3)c(=O)c12		< 100
Cc1ccccc1-n1c(C(C)Nc2ncnc3[nH]cnc23)cc2cccc(C)c2c1=O (stereo unspecified)	> 10000	
Cc1cccc2cc(Cn3nc(-c4cc(O)cc(F)c4)c4c(N)ncnc43)n(C3CCCCC3)c(=O)c12	> 10000	
Cc1ccccc1-n1c(Cn2nc(-c3cn[nH]c3)c3c(N)ncnc32)cc2cccc(C)c2c1=O	> 10000	
Cc1ccccc1-n1c(Cn2nc(-c3ccc(O)c(Cl)c3)c3c(N)ncnc32)cc2cccc(C)c2c1=O	> 10000	
Cc1cccc2cc([C@H](C)Nc3nc(Cl)nc4[nH]cnc34)n(-c3ccccc3)c(=O)c12		< 100
Cc1ccccc1-n1c(Cn2nc(Br)c3c(N)ncnc32)cc2cccc(C)c2c1=O	> 10000	
Cc1cccc2cc(Cn3nc(-c4cccc(O)c4)c4c(N)ncnc43)n(-c3ccccc3O)c(=O)c12	> 10000	
Cc1cccnc1-n1c(Cn2nc(-c3ccc4oc(N)nc4c3)c3c(N)ncnc32)cc2cccc(C)c2c1=O		< 100
CCC(Nc1ncnc2[nH]cnc12)c1cc2cccc(C)c2c(=O)n1C1CCN(C)CC1 (stereo unspecified)	> 10000	100 to 1000

SMILES	IC50 (PIK3CA (human)) [nM]	IC50 (PIK3CD (Human)) [nM]
Cc1cccc2cc([C@H](C)Nc3ncnc4[nH]cnc34)n(C3CCC3)c(=O)c12		< 100
Cc1cccc2cc([C@@H](C)Nc3ncnc4[nH]cnc34)n(C3CC3)c(=O)c12		> 10000
Cc1ccccc1-n1c(Cn2nc(-c3ccc4nc(N)ccc4c3)c3c(N)ncnc32)cc2cccc(C)c2c1=O	100 to 1000	
Nc1ncnc2c1c(-c1cccc(O)c1)nn2Cc1cc2cccc(F)c2c(=O)n1-c1ccccc1F		100 to 1000
CC(=O)Nc1nc2cc(-c3nn(Cc4cc5cccc(C)c5c(=O)n4-c4ccccc4C)c4ncnc(N)c34)ccc2s1	> 10000	100 to 1000
Cc1ccccc1-n1c(Cn2nc(-c3ccc(F)c(O)c3)c3c(N)ncnc32)cc2cccc(C)c2c1=O	> 10000	
Cc1ccccc1-n1c(Cn2nc(-c3cc(O)cc(F)c3)c3c(N)ncnc32)cc2ccccc2c1=O	> 10000	
Cc1cccc2cc([C@H](C)Nc3nc(N)ncc3Cl)n(-c3ccccc3)c(=O)c12	> 10000	< 100
Cc1ccccc1-n1c(Cn2nc(I)c3c(N)ncnc32)cc2ccccc2c1=O	> 10000	100 to 1000
Cc1cccc2cc(Cn3nc(-c4ccc5nc(N)cn5c4)c4c(N)ncnc43)n(-c3ccccc3)c(=O)c12	> 10000	100 to 1000
Cc1cccc2cc([C@H](C)Nc3ncnc4[nH]nc(Cl)c34)n(-c3ccccc3)c(=O)c12	> 10000	< 100
Cc1cccc2cc(Cn3nc(-c4cc(O)cc(F)c4)c4c(N)ncnc43)n(-c3ccccc3)c(=O)c12	100 to 1000	
Cc1cccnc1-n1c(Cn2nc(-c3cc(O)cc(F)c3)c3c(N)ncnc32)cc2cccc(C)c2c1=O	> 10000	
Cc1cccc2cc(Cn3nc(-c4cccc(O)c4)c4c(N)ncnc43)n(-c3ccccc3Cl)c(=O)c12	> 10000	
Cc1ccccc1-n1c(Cn2nc(-c3nn[nH]n3)c3c(N)ncnc32)cc2cccc(C)c2c1=O		< 100
CC(Nc1ncnc2[nH]cnc12)c1cc2ccccc2c(=O)n1C1CCN(C)CC1 (stereo unspecified)		100 to 1000
Cc1cccc2cc(C(C)Nc3ncnc4[nH]cnc34)n(CCN3CCCC3)c(=O)c12 (stereo unspecified)		< 100
Cc1ccccc1-n1c(Cn2nc(C(=O)O)c3c(N)ncnc32)cc2cccc(C)c2c1=O		100 to 1000
COc1ccccc1-n1c(Cn2nc(-c3cccc(O)c3)c3c(N)ncnc32)cc2cccc(C)c2c1=O	> 10000	
Cc1cccc2cc(Cn3nc(C(N)=O)c4c(N)ncnc43)n(-c3ccccc3)c(=O)c12		100 to 1000
Cc1cccc2cc(Cn3nc(C#C[C@@H](C)O)c4c(N)ncnc43)n(-c3ccccc3C(C)C)c(=O)c12	> 10000	

SMILES	IC50 (PIK3CA (human)) [nM]	IC50 (PIK3CD (Human)) [nM]
Cc1cccc2cc(Cn3nc(-c4cccc(O)c4)c4c(N)ncnc43)n(C3CCC3)c(=O)c12	> 10000	
CCC(Nc1ncnc2[nH]cnc12)c1cc2cccc(C)c2c(=O)n1-c1ccccc1 (stereo unspecified)	> 10000	< 100
Cc1cccc2cc(Cn3nc(-c4ccc5nc(N)[nH]c5c4)c4c(N)ncnc43)n(-c3ccccc3)c(=O)c12		< 100
Cc1cccc2cc(Cn3nc(C#C[C@@H](C)O)c4c(N)ncnc43)n(C(C)C)c(=O)c12	> 10000	
Cc1cccnc1-n1c(Cn2nc(Cl)c3c(N)ncnc32)cc2cccc(C)c2c1=O	> 10000	100 to 1000
Cc1cccc2cc(C(C)Nc3ncnc4[nH]cnc34)n(-c3ccccc3F)c(=O)c12 (stereo unspecified)	> 10000	
Cc1cccc2cc([C@H](C)Nc3nc(N)ncc3C(F)(F)F)n(-c3ccccc3)c(=O)c12	> 10000	< 100
Cc1cccc2cc([C@H](C)Nc3ncnc4[nH]ncc34)n(-c3ccccc3)c(=O)c12	> 10000	100 to 1000
Cc1cccnc1-n1c(Cn2nc(-c3ccc(Cl)c(O)c3)c3c(N)ncnc32)cc2cccc(C)c2c1=O	> 10000	
CCC(Nc1ncnc2[nH]cnc12)c1cc2cccc(C)c2c(=O)n1-c1ccc(F)cc1 (stereo unspecified)		< 100
Cc1cccnc1-n1c(Cn2nc(-c3cccc(O)c3)c3c(N)ncnc32)cc2ccccc2c1=O		100 to 1000
Cc1cccc2cc(Cn3nc(-c4cc(O)cc(F)c4)c4c(N)ncnc43)n(C3CC3)c(=O)c12	100 to 1000	
Cc1ccccc1-n1c(Cn2nc(-c3cnc4[nH]ccc4c3)c3c(N)ncnc32)cc2cccc(C)c2c1=O	> 10000	
Cc1cccc2cc(Cn3nc(I)c4c(N)ncnc43)n(C3CCCC3)c(=O)c12		100 to 1000
Cc1cccc2cc([C@H](C)Nc3c(C#N)cnc4ccccc34)n(-c3ccccc3)c(=O)c12	> 10000	
Cc1ccccc1-n1c(Cn2nc(C=CC(N)=O)c3c(N)ncnc32)cc2cccc(C)c2c1=O	> 10000	
Cc1cccc2cc(C(C)Nc3ncnc4[nH]cnc34)n(C3CCCC3)c(=O)c12 (stereo unspecified)		< 100
Cc1cccc2cc(Cn3nc(C#C[C@@H](C)O)c4c(N)ncnc43)n(C3CCCC3)c(=O)c12	> 10000	
Cc1ccccc1-n1c(Cn2nc(-c3ccc4nc(N)[nH]c4c3)c3c(N)ncnc32)cc2cccc(C)c2c1=O		< 100
Cc1ccccc1-n1c(Cn2nc(I)c3c(N)ncnc32)cc2cccc(C)c2c1=O	> 10000	
Cc1ccccc1-n1c(Cn2nc(C(F)F)c3c(N)ncnc32)cc2cccc(C)c2c1=O		< 100
